# Read-outs that look alike come from different tables or passages of the source.
# How the values were obtained:
# [1] = target: T1, MMP-2 (Homo sapiens, UniProt P08253); assay: MMP-2 inhibition assay (fluorogenic peptide substrate); format: biochemical; settings: for IC50: n.d: not detected
# T1 construct: purchased Sino Biological 10082-HNAH
# T1 sequence (P08253 110-660): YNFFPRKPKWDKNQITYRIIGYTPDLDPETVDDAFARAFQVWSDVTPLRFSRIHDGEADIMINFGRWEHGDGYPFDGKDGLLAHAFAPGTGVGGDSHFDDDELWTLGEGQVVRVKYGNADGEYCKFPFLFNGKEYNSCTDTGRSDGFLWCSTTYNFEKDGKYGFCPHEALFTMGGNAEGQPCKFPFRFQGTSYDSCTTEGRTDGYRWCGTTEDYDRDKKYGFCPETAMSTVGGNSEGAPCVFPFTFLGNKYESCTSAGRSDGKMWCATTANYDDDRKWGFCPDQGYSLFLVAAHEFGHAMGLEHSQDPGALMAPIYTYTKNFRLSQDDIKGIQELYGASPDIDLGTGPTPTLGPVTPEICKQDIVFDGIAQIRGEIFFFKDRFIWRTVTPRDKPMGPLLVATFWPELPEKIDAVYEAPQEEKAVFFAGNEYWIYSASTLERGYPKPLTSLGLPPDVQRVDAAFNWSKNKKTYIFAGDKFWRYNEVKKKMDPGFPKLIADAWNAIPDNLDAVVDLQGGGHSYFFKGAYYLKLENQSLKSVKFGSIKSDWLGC
# Procedure: (§1) The inhibition by the small molecule compounds against MMP-2/MMP-9 was measured using an assay probing the enzyme proteolytic activity on the substrate DNP-Pro-Leu-Gly-Met-Trp-Ser-Arg (Enzo Life Sciences, USA). All assays were performed in the assay buffer containing 50 mM Tris, 100 mM NaCl. 5 mM CaCl2, and 0.1% Brij 35, pH 7.5. Human proMMP-2 and proMMP-9 were purchased from Sino biological (Germany). The proMMPs were activated by 1 mM APMA in the assay buffer at 37 °C for 2 h. After activation, MMP-2 was diluted to 6.5 nM of final assay concentration, and MMP-9 was diluted by the buffer to reach 10 nM of final assay concentration. In each well, 49 μl of enzyme solution was incubated with 1 μl of compounds of series of concentration (nM-mM in DMSO) at RT for 30 min. 2 μl of the FRET substrate was added right before the measurement at a final concentration of 25 μM. The rate of hydrolysis was monitored by quantifying the emission at 360 nm (ex: 280 nm). The emission was measured with intervals of the 30 s for 30 min with Synergy H1 Plate Reader (Agilent, USA). The measurements were done in triplicate. […] Then, curves were plotted as a function of the concentration of the inhibitor against the relative enzyme activity. Vmax was derived from the detected […] signal for each concentration and logistic fitting was performed to obtain IC50 values using Origin 2019b (OriginLab).
# [2] = target: T2, MMP-9 (Homo sapiens, UniProt P14780); assay: MMP-9 inhibition assay (fluorogenic peptide substrate); format: biochemical; parameters: remaining enzyme activity (% of control): scale not given here; settings: for IC50: n.d: not detected
# T2 construct: purchased Sino Biological 10327-HNAH
# T2 sequence (P14780 107-707 limits assumed): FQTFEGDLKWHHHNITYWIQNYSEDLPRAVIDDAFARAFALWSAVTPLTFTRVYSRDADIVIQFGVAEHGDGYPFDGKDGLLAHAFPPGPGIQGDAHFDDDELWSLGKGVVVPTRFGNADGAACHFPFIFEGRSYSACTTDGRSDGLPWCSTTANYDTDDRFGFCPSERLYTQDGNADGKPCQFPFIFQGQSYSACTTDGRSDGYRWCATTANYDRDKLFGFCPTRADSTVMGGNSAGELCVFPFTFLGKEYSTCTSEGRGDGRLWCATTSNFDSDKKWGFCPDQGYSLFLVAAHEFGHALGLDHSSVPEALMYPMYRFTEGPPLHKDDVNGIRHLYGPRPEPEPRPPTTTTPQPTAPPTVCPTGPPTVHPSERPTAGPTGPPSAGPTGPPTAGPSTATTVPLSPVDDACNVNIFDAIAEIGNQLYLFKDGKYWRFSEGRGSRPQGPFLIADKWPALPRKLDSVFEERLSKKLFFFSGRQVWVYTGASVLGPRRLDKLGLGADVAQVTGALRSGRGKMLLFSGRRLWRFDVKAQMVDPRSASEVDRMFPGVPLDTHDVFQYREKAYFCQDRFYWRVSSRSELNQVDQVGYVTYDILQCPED
# Procedure: as §1
# [3] = mean ± SE, Fig. 5d unit inferred, µM, read-out: IC50
# [4] = mean ± SE, Fig. 5e prints no unit, µM, read-out: IC50
# [5] = Figure 5d, fragment combination joined by linker, read-out: MMP2 IC50
# [6] = Figure 5d, fragment combination joined by linker, read-out: MMP9 IC50
smiles,measurement,setting,value
O=C(CSCCNC(=O)c1cncc(O)c1)NCC12CC3CC(CC(C3)C1)C2 [66+828 Linker 24],remaining activity (%),"[1]; MMP-2, concentration 0.00858 µM",98.41
same,remaining activity (%),"[1]; MMP-2, concentration 0.0429 µM",98.85
same,remaining activity (%),"[1]; MMP-2, concentration 0.21 µM",87.72
same,remaining activity (%),"[1]; MMP-2, concentration 1.07 µM",96.38
same,remaining activity (%),"[1]; MMP-2, concentration 5.36 µM",85.18
same,remaining activity (%),"[1]; MMP-2, concentration 26.80 µM",89.19
same,remaining activity (%),"[1]; MMP-2, concentration 670.10 µM",1.11
same,remaining activity (%),"[1]; MMP-2, concentration […]",61.21
same,IC50,[1]; [3],184 ± 17.3 µM
same,remaining enzyme activity (% of control),"[2]; MMP-9, concentration 0.0429 µM",93.34
same,remaining enzyme activity (% of control),"[2]; MMP-9, concentration 0.21 µM",95.33
same,remaining enzyme activity (% of control),"[2]; MMP-9, concentration 1.07 µM",103.77
same,remaining enzyme activity (% of control),"[2]; MMP-9, concentration 5.36 µM",97.03
same,remaining enzyme activity (% of control),"[2]; MMP-9, concentration 26.80 µM",82.56
same,remaining enzyme activity (% of control),"[2]; MMP-9, concentration 670.10 µM",15.33
same,remaining enzyme activity (% of control),"[2]; MMP-9, concentration […]",65.61
same,IC50,[2]; [4],216 ± 47.3 µM
O=C(C=CCCCCC(=O)NCc1c[nH]nn1)CC(=O)NCC12CC3CC(CC(C3)C1)C2 [66_787 12],IC50,[1]; [5],339 µM
same,IC50,[2]; [6],115 µM
O=C(CNC(=O)NC12CC3CC(CC(C3)C1)C2)NCCOCCOCCNC(=O)c1cncc(O)c1 [66_828 10],IC50,[1]; [5],293 µM
same,IC50,[2]; [6],521 µM
O=C(/C=C/CCCCNC(=O)c1cncc(O)c1)CC(=O)NCC12CC3CC(CC(C3)C1)C2 [66_828 12],IC50,[1]; [5],488 µM
same,IC50,[2]; [6],77.4 µM
O=C(CSCCNC(=O)c1cncc(O)c1)NCC12CC3CC(CC(C3)C1)C2 [66_828 24],IC50,[1]; [5],184 µM
same,IC50,[2]; [6],216 µM
O=C(Cn1cnc2c(oc3ccccc32)c1=O)NCc1c[nH]nn1 [182+787 Linker 1],remaining activity (%),"[1]; MMP-2, concentration 0.0156 µM",89.30
same,remaining activity (%),"[1]; MMP-2, concentration 0.08 µM",95.29
same,remaining activity (%),"[1]; MMP-2, concentration 0.39 µM",92.88
same,remaining activity (%),"[1]; MMP-2, concentration 1.95 µM",92.98
same,remaining activity (%),"[1]; MMP-2, concentration 9.75 µM",84.05
same,remaining activity (%),"[1]; MMP-2, concentration 48.76 µM",61.94
same,remaining activity (%),"[1]; MMP-2, concentration 243.80 µM",24.12
same,remaining activity (%),"[1]; MMP-2, concentration 1219.00 µM",0.00
same,IC50,[1]; [3],95.5 ± 35.1 µM
same,remaining enzyme activity (% of control),"[2]; MMP-9, concentration 0.08 µM",89.67
same,remaining enzyme activity (% of control),"[2]; MMP-9, concentration 0.39 µM",88.12
same,remaining enzyme activity (% of control),"[2]; MMP-9, concentration 1.95 µM",85.78
same,remaining enzyme activity (% of control),"[2]; MMP-9, concentration 9.75 µM",75.76
same,remaining enzyme activity (% of control),"[2]; MMP-9, concentration 48.76 µM",77.96
same,remaining enzyme activity (% of control),"[2]; MMP-9, concentration 243.80 µM",22.66
same,remaining enzyme activity (% of control),"[2]; MMP-9, concentration 1219.00 µM",0.00
same,IC50,[2]; [4],143 ± 32.6 µM

# From publication PMC10023787, “Trio-pharmacophore DNA-encoded chemical library for simultaneous selection of fragments and linkers” (Nature Communications, 2023)
